Source: the supplement of paper PMC10290057
Several values for one entry are separate records, joined by “and”; a condition that tells them apart may be missing. Equal entries are not always repeated. Structures can show the parent of a compound that is named as a salt.

Tests used:
[1] = tested on: HCT116; experiment: AC50 cell viability (CellTiter-Glo); higher = less potent; conditions: 48 h
[2] = tested on: HCT116; experiment: efficacy (fitted maximal change in viability relative to DMSO control); higher = less cytotoxic (negative = loss of viability); conditions: 48 h
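Wherever AC50 cell viability (CellTiter-Glo) is given: HCT116 colorectal carcinoma cells screened at five concentrations per compound, luminescent viability scaled between DMSO wells and empty wells on each plate, curves fitted per compound.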
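Wherever efficacy (fitted maximal change in viability relative to DMSO control) is given: Luminescence-based viability readout, five doses per compound, normalized against on-plate DMSO and empty-well controls, followed by dose-response curve fitting for every drug.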

Row | SMILES | AC50 cell viability [1] | efficacy [2]
1 | CCc1ccc(OCc2ccccc2C(=O)Nc2ccc3nc(C)cc(N)c3c2)cc1 [JTC-801] | 3.32 µM | -94.1%
2 | CC(C)NC(=O)COc1cccc(-c2nc(Nc3ccc4[nH]ncc4c3)c3ccccc3n2)c1 [KD-025] | 8.33 µM | -66.8%
3 | CC(C)CNc1ccnc(NCc2csc(-c3ccccc3)n2)n1 [KHS-101] | 11.8 µM | -129%
4 | COc1cc2nccc(Oc3ccc(NC(=O)Nc4ccc(F)cc4F)c(F)c3)c2cc1OC [KI-8751] | 2.09 µM | -47.4%
5 | COc1ccc([S+](=O)([O-])N(CCO)c2ccccc2CN(C)C/C=C/c2ccc(Cl)cc2)cc1 [KN-93] | 14.8 µM | -93.9%
6 | O=C(/C=C\n1cnc(-c2cc(C(F)(F)F)cc(C(F)(F)F)c2)n1)N1CC(F)(F)C1 [KPT-276] | 0.59 µM | -75.6%
7 | Nc1ccc(/C=C/C(=O)NCc2cc3cc(-c4ccc(C(=O)N5CCC(F)(F)CC5)cc4)cc(-c4ccc(F)cc4)c3o2)cn1 [KPT-9274] | 0.59 µM | -91.7%
8 | NC(CO)(CO)CCc1ccc(Sc2cccc(OCc3ccccc3)c2)cc1Cl [KRP-203] | 7.42 µM | -92.6%
9 | O=C/1\C=C(/OC(=C1)/C2=C3SC4=C(SC3=CC=C2)C=CC=C4)N5CCOCC5 [KU-0064] | 16.6 µM | -77.5%
10 | O=C(c1ccc(/C=C/c2n[nH]c3ccccc23)cc1)N1CCNCC1 [KW-2449] | 8.33 µM | -96.6%
11 | CCc1c(O)cc(O)c(C(=O)c2ccc(OCCN3CCOCC3)c(OC)c2)c1CC(=O)N(CCOC)CCOC [KW-2478] | 0.833 µM | -53.2%
12 | O=C(Cc1ccc(-c2ccc(OCCN3CCOCC3)cc2)cn1)NCc1ccccc1 [KX-01] | 0.0833 µM | -59.6%
13 | N[S+](=O)([O-])c1ccc(NC(=S)N2CCN(C/C=C/c3ccccc3)CC2)cc1 [LF3] | 2.95 µM | -42.2%
14 | Cc1cc(-c2ncc(CC(=O)Nc3ccc(-c4cnccn4)cn3)cc2C)ccn1 [LGK-974] | 16.6 µM | -52.5%
15 | N[S+](=O)([O-])c1cccc2c1C(=O)c1cccc(O)c1C2=O [LLL-12] | 0.833 µM | -88%
16 | Cc1cn(CCN2CCN(c3ccccc3-c3cc(C#N)cc(C(=O)NCCCN4CCCC4)c3)CC2)c2ccccc12 [LLY-507] | 26.3 µM | -130%
17 | COC1=C(OC)C=C\2C(=C1)C(=O)N(CCCNCCO)\C3=C2C(=O)C4=C3C=C5OCOC5=C4 [LMP-744] | 4.17 µM | -99.5%
18 | COc1cc(C(=O)N2CCC(N3CCN(C)CC3)CC2)ccc1Nc1ncc2c(n1)N(C)c1ccccc1C(=O)N2C [LRRK2-IN-1] | 6.61 µM | -94.6%
19 | Cc1c[nH]c2ncnc(N3CCC(CN)(C(=O)Nc4cccc(OC(=O)N(C)C)c4)CC3)c12 [LX-7101] | 14.8 µM and 11.8 µM | -68.9% and -70.5%
20 | CC1(N)CCN(c2cccnc2NC(=O)c2nc(-c3ncccc3C(F)(F)F)cnc2N)CC1 [LXS-196] | 16.6 µM | -70.1%
21 | C[S+](=O)([O-])CCNCc1ccc(-c2ccc3ncnc(Nc4ccc(OCc5cccc(F)c5)c(Cl)c4)c3c2)o1 [Lapatinib] | 16.6 µM | -99.2%
22 | CCN(C(=O)C/1=C(O)/C2=C(C=CC=C2Cl)N(C)C1=O)C3=CC=CC=C3 [Laquinimod] | 10.5 µM | -65.8%
23 | Cc1oncc1C(=O)Nc1ccc(C(F)(F)F)cc1 [Leflunomide] | 3.32 µM | -31.2%
24 | COc1cc2nccc(Oc3ccc(NC(=O)NC4CC4)c(Cl)c3)c2cc1C(N)=O [Lenvatinib] | 26.3 µM | -61.7%
25 | CCC(=C/[C@H](C)C/C=C/C(C)=C/[C@@H](C)C(=O)[C@@H](C)[C@H](O)[C@@H](C)C/C(C)=C/C(=O)O)/C=C/[C@@H]1OC(=O)C=C[C@@H]1C [Leptomycin B] | 0.00372 µM | -80.9%
26 | C[C@@]12O[C@@H](C[C@]1(O)CO)n1c3ccccc3c3c4c(c5c6ccccc6n2c5c31)CNC4=O [Lestaurtinib] | 1.05 µM | -63.8%
27 | CCC[C@H](Nc1nc(-c2ccc(NC(=O)NCC)c(OC)c2)ncc1C)c1cccnc1 [Lexibulin hydrochloride] | 0.0742 µM | -73.5%
28 | Cc1ccc(F)c(NC(=O)Nc2ccc(-c3cccc4[nH]nc(N)c34)cc2)c1 [Linifanib] | 9.34 µM | -90.4%
29 | C[C@]1(O)CC(C1)C2=NC(=C3[N]2C=CN=C3N)C4=CC5=C(C=C4)C=CC(=N5)C6=CC=CC=C6 (stereo not drawn) [Linsitinib] | 23.5 µM | -46.3%
